Assay results as given in PubChem BioAssay AID2060612 (Molecular Pharmacology Branch, DTP, NCI, 2025).

Tested on: 565232-114-T-J1-PDC complex spheroid viability
Experiment: Anticancer human tumor 565232-114-T-J1-PDC patient-derived bladder carcinoma cell line growth inhibition [CLK]
Details: for IC50: curve of first compound; for viability, T/C: stronger effect = lower value
Procedure, shortened: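 Multi-cell-type spheroids combined patient-derived tumor cells with HUVEC endothelial cells and human mesenchymal stem cells. Paired agents were dosed in half-log steps down from about clinical Cmax, or from 10 microM where Cmax was unknown.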

[1] = second compound 0.0316 µM, first compound 0.0316 µM
[2] = second compound 0.0316 µM, first compound 0.1 µM
[3] = second compound 0.0316 µM, first compound 0.316 µM
[4] = second compound 0.0316 µM, first compound 1 µM
[5] = second compound 0.0316 µM, first compound 3.16 µM
[6] = second compound 0.0316 µM, first compound 10 µM
[7] = second compound 0.1 µM, first compound 0.0316 µM
[8] = second compound 0.1 µM, first compound 0.1 µM
[9] = second compound 0.1 µM, first compound 0.316 µM
[10] = second compound 0.1 µM, first compound 1 µM
[11] = second compound 0.1 µM, first compound 3.16 µM
[12] = second compound 0.1 µM, first compound 10 µM
[13] = second compound 0.316 µM, first compound 0.0316 µM
[14] = second compound 0.316 µM, first compound 0.1 µM
[15] = second compound 0.316 µM, first compound 0.316 µM
[16] = second compound 0.316 µM, first compound 1 µM
[17] = second compound 0.316 µM, first compound 3.16 µM
[18] = second compound 0.316 µM, first compound 10 µM
[19] = second compound 1 µM, first compound 0.0316 µM
[20] = second compound 1 µM, first compound 0.1 µM
[21] = second compound 1 µM, first compound 0.316 µM
[22] = second compound 1 µM, first compound 1 µM
[23] = second compound 1 µM, first compound 3.16 µM
[24] = second compound 1 µM, first compound 10 µM
[25] = second compound 3.16 µM, first compound 0.0316 µM
[26] = second compound 3.16 µM, first compound 0.1 µM
[27] = second compound 3.16 µM, first compound 0.316 µM
[28] = second compound 3.16 µM, first compound 1 µM
[29] = second compound 3.16 µM, first compound 3.16 µM
[30] = second compound 3.16 µM, first compound 10 µM
[31] = second compound 10 µM, first compound 0.0316 µM
[32] = second compound 10 µM, first compound 0.1 µM
[33] = second compound 10 µM, first compound 0.316 µM
[34] = second compound 10 µM, first compound 1 µM
[35] = second compound 10 µM, first compound 3.16 µM
[36] = second compound 10 µM, first compound 10 µM
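Also: spheroids exposed to compounds for 7 days before readout.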
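For viability, T/C in this document: 100% = DMSO vehicle wells with luminescence normalized to vehicle control.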

Compound `O=c1[nH]cc(F)c(=O)[nH]1` + CNC(=O)c1ccc(Nc2nc(OC3CCCC3)c3c(-c4ccc5nc(C)oc5c4)c[nH]c3n2)c(OC)c1 has an IC50 (second compound 0.0316 µM) of over 10000 nM, an IC50 (second compound 0.1 µM) of under 31.6 nM and an IC50 (second compound 0.316 µM) of under 31.6 nM. For the same compound, the IC50 (second compound 1 µM) was under 31.6 nM, the IC50 (second compound 3.16 µM) was under 31.6 nM and the IC50 (second compound 10 µM) was under 31.6 nM. The viability, T/C [1] was 84.3%, the viability, T/C [2] was 96.8% and the viability, T/C [3] was 97.1%. The viability, T/C [4] was 108%, the viability, T/C [5] was 87.3% and the viability, T/C [6] was 72.4%. For the same compound, the viability, T/C [7] was 44%, the viability, T/C [8] was 50% and the viability, T/C [9] was 44%. The viability, T/C [10] was 48%, the viability, T/C [11] was 41% and the viability, T/C [12] was 46.1%. The viability, T/C [13] was 29.7%, the viability, T/C [14] was 31.4% and the viability, T/C [15] was 31.2%. For the same compound, the viability, T/C [16] was 36%, the viability, T/C [17] was 35.3% and the viability, T/C [18] was 40.1%. For the same compound, the viability, T/C [19] was 20.1%, the viability, T/C [20] was 21% and the viability, T/C [21] was 19.4%. It also gave a viability, T/C [22] of 23.1%, a viability, T/C [23] of 23.8% and a viability, T/C [24] of 28.5%. It also gave a viability, T/C [25] of 16.9%, a viability, T/C [26] of 16.4% and a viability, T/C [27] of 17.8%. The viability, T/C [28] was 19.6%, the viability, T/C [29] was 18.6% and the viability, T/C [30] was 21.3%. For the same compound, the viability, T/C [31] was 21.3%, the viability, T/C [32] was 16.1% and the viability, T/C [33] was 18.2%. The viability, T/C [34] was 19.9%, the viability, T/C [35] was 18.1% and the viability, T/C [36] was 18.9%.
Compound `CC(Nc1ccc2c(c1)OCCn1cc(N3C(=O)OCC3C(F)F)nc1-2)C(N)=O` (stereo unspecified) + CNC(=O)c1ccc(Nc2nc(OC3CCCC3)c3c(-c4ccc5nc(C)oc5c4)c[nH]c3n2)c(OC)c1 has an IC50 (second compound 0.0316 µM) of over 10000 nM, an IC50 (second compound 0.1 µM) of under 31.6 nM and an IC50 (second compound 0.316 µM) of under 31.6 nM. For the same compound, the IC50 (second compound 1 µM) was under 31.6 nM, the IC50 (second compound 3.16 µM) was under 31.6 nM and the IC50 (second compound 10 µM) was under 31.6 nM. It also gave a viability, T/C [1] of 87.5%, a viability, T/C [2] of 93.6% and a viability, T/C [3] of 88.1%. It also gave a viability, T/C [4] of 100%, a viability, T/C [5] of 101% and a viability, T/C [6] of 101%. It also gave a viability, T/C [7] of 35.1%, a viability, T/C [8] of 34.1% and a viability, T/C [9] of 37.4%. The viability, T/C [10] was 39.9%, the viability, T/C [11] was 33.6% and the viability, T/C [12] was 29.2%. The viability, T/C [13] was 21.4%, the viability, T/C [14] was 20.2% and the viability, T/C [15] was 23.8%. It also gave a viability, T/C [16] of 23.7%, a viability, T/C [17] of 19.9% and a viability, T/C [18] of 18%. It also gave a viability, T/C [19] of 15.5%, a viability, T/C [20] of 15.3% and a viability, T/C [21] of 12.6%. For the same compound, the viability, T/C [22] was 14.9%, the viability, T/C [23] was 13.1% and the viability, T/C [24] was 9.75%. The viability, T/C [25] was 9.27%, the viability, T/C [26] was 10.4% and the viability, T/C [27] was 9.44%. It also gave a viability, T/C [28] of 10.1%, a viability, T/C [29] of 6.97% and a viability, T/C [30] of 10.2%. It also gave a viability, T/C [31] of 12.9%, a viability, T/C [32] of 10.9% and a viability, T/C [33] of 13.1%. For the same compound, the viability, T/C [34] was 9.16%, the viability, T/C [35] was 7.38% and the viability, T/C [36] was 5.93%.
Compound `CC1(C)CCC(CN2CCN(c3ccc(C(=O)NS(=O)(=O)c4ccc(NCC5CCOCC5)c([N+](=O)[O-])c4)c(Oc4cnc5[nH]ccc5c4)c3)CC2)=C(c2ccc(Cl)cc2)C1` + CNC(=O)c1ccc(Nc2nc(OC3CCCC3)c3c(-c4ccc5nc(C)oc5c4)c[nH]c3n2)c(OC)c1 has an IC50 (second compound 0.0316 µM) of 8790 nM, an IC50 (second compound 0.1 µM) of 2340 nM and an IC50 (second compound 0.316 µM) of under 31.6 nM. The IC50 (second compound 1 µM) was under 31.6 nM, the IC50 (second compound 3.16 µM) was under 31.6 nM and the IC50 (second compound 10 µM) was under 31.6 nM. For the same compound, the viability, T/C [1] was 82.7%, the viability, T/C [2] was 93.9% and the viability, T/C [3] was 95.7%. For the same compound, the viability, T/C [4] was 95.2%, the viability, T/C [5] was 92.7% and the viability, T/C [6] was 44.7%. The viability, T/C [7] was 60.2%, the viability, T/C [8] was 55.1% and the viability, T/C [9] was 52.6%. It also gave a viability, T/C [10] of 53.6%, a viability, T/C [11] of 49.4% and a viability, T/C [12] of 30.5%. For the same compound, the viability, T/C [13] was 37.3%, the viability, T/C [14] was 38.1% and the viability, T/C [15] was 39.3%. It also gave a viability, T/C [16] of 33.5%, a viability, T/C [17] of 32.7% and a viability, T/C [18] of 23.7%. It also gave a viability, T/C [19] of 21.2%, a viability, T/C [20] of 23.3% and a viability, T/C [21] of 25.4%. For the same compound, the viability, T/C [22] was 26.6%, the viability, T/C [23] was 28.7% and the viability, T/C [24] was 20.6%. It also gave a viability, T/C [25] of 22%, a viability, T/C [26] of 20.8% and a viability, T/C [27] of 23.6%. For the same compound, the viability, T/C [28] was 20.8%, the viability, T/C [29] was 20.8% and the viability, T/C [30] was 17.1%. The viability, T/C [31] was 21.5%, the viability, T/C [32] was 19.9% and the viability, T/C [33] was 18.5%. The viability, T/C [34] was 21.1%, the viability, T/C [35] was 20.1% and the viability, T/C [36] was 16.5%.
